{
  "source": "patent US11993594B2",
  "about": "“IRAK inhibitors and method for making and using” (Rigel Pharmaceuticals, Inc., priority 2016, dated 2024)",
  "test_system": "LPS Induced IL23p19 in THP-1 Cells",
  "experiment": "LPS Induced IL23p19 in THP-1 Cells (with IFNγ Primed) Assay",
  "format": "cell-based, human",
  "settings": "THP-1 cells primed with IFNγ 50 ng/mL, LPS 1 ug/mL, 18 hours, 10 pt, read-out: IL23-p19 ELISA, THP1-IFNγ, LPS, 10 pt EC50",
  "source_text": "LPS Induced IL23p19 in THP-1 Cells (with IFNγ Primed) Assay\nTHP-1 Cells (ATCC, Cat #TIB-202), Dimethyl Sulfoxide (DMSO) (Sigma-Aldrich, Cat #D2650), RPMI 1640 (Cellgro, Cat #10-040-CM), Fetal Bovine Serum (Sigma, Cat #F4135), Albumin From Bovine Serum (BSA) (Sigma-Aldrich, Cat #A7906), LPS (Serotype K-235, Sigma, Product Number L 2143), IFNγ (Peprotech, Cat #300-02) Capture antibody: Human IL-23p19 ELISA (e-Bioscience, Cat. #14-7238-85), Detection antibody: Primary Mouse Biotinylated anti-human IL-12(p40/p70) (e-Bioscience, Cat. #13-7129-85), Secondary HRP-conjugated Streptavidin (R&D Systems, Cat #DY998), 1×PBST Washing Buffer (PBS-Tween tablet) (VWR International, Cat #80058-558), ELISA Blocking Buffer (PBS with 1% BSA), ELISA Dilution Buffer (PBS with 1% BSA), 384 Well Flat-Bottom, MaxiSorp Black Immuno Plates (Thermo Scientific, Cat #12-565-346), 384 Well Flat-Bottom, White Tissue Culture Plates (Thermo Scientific, Cat #12-565-343), Super Signal ELISA Pico Chemiluminescent Substrate (Thermo Scientific, Cat #37070), Cell Titer Glo reagent (Promega, Cat #G7573), Positive control, IKK2VI inhibitor (Calbiochem, Cat #401483), AquaMax 4000 plate washer (Molecular Devices), Luminometer, Wallac Victor2 1420 Multilabel Counter.\nOn day 1, 50K/well THP-1 cells were seeded and primed with IFNγ (50 ng/mL) in 384-well plates for about 18 hours in RPMI media with 10% FBS. On day 2, the compound was serially diluted in DMSO from 5 mM in 3-fold dilutions, and then diluted 1:125 in RPMI media with 10% FBS. 50 μL/well 2× compound was added to 50 μL/well THP-1 cells (with IFNγ primed) in duplicate in 384 well tissue culture plates. The cells were pre-incubated with compound for 1 hour at 37° C., 5% CO2 before addition of 10 μL/well 11×LPS to give a final concentration of 1 ug/mL LPS. Day 3, after stimulation for 18 hours at 37° C., 5% CO2, the assay plate was centrifuged and 70 μL/well supernatant was harvested. IL-23p19 protein in 70 µL/well of supernatant was measured by sandwich ELISA, and 25 μl/well Cell Titer Glo reagent was added to the remaining cells to measure compound toxicity.\nHuman IL-23p19 Sandwich ELISA:\nMaxisorp immuno ELISA plates were pre-coated with 25 μL/well of anti-IL-23p19 capture antibody (2.5 ug/mL) in PBS overnight at room temperature. After washing with 1×PBST, the plates were blocked using 100 μL/well of 1% BSA in PBS for 2 hours at room temperature. The plates were washed three times with 1×PBST and 70 μL/well supernatant were added. The plates were incubated at room temperature for 2 hours with shaking and washed three times with 1×PBST. 25 μL/well of biotin labeled anti-IL-12(p40/p70) detection antibody (100 ng/mL) in PBS with 1% BSA was added and the plates were incubated at room temperature for 2 hours with shaking. After washing three times with 1×PBST, 25 μL/well of streptavidin-HRP (1:200) in PBS with 1% BSA was added and the plates were incubated at room temperature for 20 minutes with shaking. The plates were washed three times with 1×PBST and 25 μL/well of Super Signal ELISA Pico Chemiluminescent Substrate were added. The plates were read with a luminometer, and the chemiluminescence values were entered into Athena (Rigel) for curve fitting, EC50 calculation, and database storage. […]",
  "note": "Read-outs that look alike come from different tables or passages of the source.",
  "data": [
    {"smiles": "CCO[C@H]1CC[C@H](n2cc(NC(=O)c3coc(-c4cn[nH]c4)n3)c(-c3ccncn3)n2)CC1", "note": "[Compound I-6, N-(1-((1r,4r)-4-ethoxycyclohexyl)-3-(pyrimidin-4-yl)-1H-pyrazol-4-yl)-2-(1H-pyrazol-4-yl)oxazole-4-carboxamide]", "values": [
      {"measurement": "EC50", "setting": "Table 1", "result": 0.0196, "unit": "µM"},
      {"measurement": "EC50", "setting": "Table 2", "result": 0.0196, "unit": "µM"}
    ]},
    {"smiles": "CCOC1CCC(n2ncc(NC(=O)c3coc(-c4cn[nH]c4)n3)c2-c2nc(F)ccc2F)CC1", "note": "[Compound I-14, N-(5-(3,6-difluoropyridin-2-yl)-1-((1r,4R)-4-ethoxycyclohexyl)-1H-pyrazol-4-yl)-2-(1H-pyrazol-4-yl)oxazole-4-carboxamide]", "values": [
      {"measurement": "EC50", "setting": "Table 1", "result": 9.12, "unit": "µM"},
      {"measurement": "EC50", "setting": "Table 2", "result": 9.12, "unit": "µM"}
    ]},
    {"smiles": "Cn1cc(NC(=O)c2coc(-c3cnn(CC4CC4)c3)n2)c(-c2ccccn2)n1", "note": "[Compound I-19, 2-(1-(cyclopropylmethyl)-1H-pyrazol-4-yl)-N-(1-methyl-3-(pyridin-2-yl)-1H-pyrazol-4-yl)oxazole-4-carboxamide]", "values": [
      {"measurement": "EC50", "setting": "Table 3", "result": 20.3, "unit": "µM"}
    ]},
    {"smiles": "O=C(Nc1cn([C@H]2CC[C@H](N3CCOCC3)CC2)nc1-c1nc(F)ccc1F)c1coc(-c2cn[nH]c2)n1", "note": "[Compound I-37, N-(3-(3,6-difluoropyridin-2-yl)-1-((1r,4r)-4-morpholinocyclohexyl)-1H-pyrazol-4-yl)-2-(1H-pyrazol-4-yl)oxazole-4-carboxamide]", "values": [
      {"measurement": "EC50", "setting": "Homo sapiens, Table 1", "result": 0.0733, "unit": "µM"}
    ]}
  ]
}
